Measured values published in PubChem BioAssay AID1918958 (Molecular Pharmacology Branch, DTP, NCI, 2023).

Tested on: NCI-H196 complex spheroid viability
Experiment: Anticancer human tumor NCI-H196 cell line growth inhibition [LSD1];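 note: spheroids exposed to agents for 7 days before readout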;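 for viability, T/C: 100% = DMSO vehicle control viability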
Conditions: for IC50: curve of first compound; for viability, T/C: stronger effect = lower value
From the text: Multicellular complex tumor spheroid response to LSD1 Inhibitor Iadademstat in combination with a variety of drugs and investigational agents in selected tumor cell lines
The current study was undertaken to assess response to LSD1 inhibitors in combination with standard-of-care drugs and investigational agents in solid tumor complex spheroid models as well as in the K-562 leukemia. Complex spheroids include a stromal component modeled by human endothelial cells (HUVEC) and fibroblasts modeled by human mesenchymal stem cells (MSCs). The concentration ranges selected for each drug and investigational agent were based upon clinically achievable concentrations if the clinical Cmax of the agent was known.
Compounds. The drugs and investigational agents used in this study are listed on Table 1. All of the agents used, including staurosporine (NSC755774) and gemcitabine (NSC613327), were obtained from the Developmental Therapeutics Program, NCI. FDA-approved anticancer drugs are available from the NCI at http://dtp.nci.nih.gov/branches/dscb/oncology_drugset_explanation.html. Drugs and investigational agents were >95% pure by proton nuclear magnetic resonance (NMR) and liquid chromatography/mass spectrometry (LC/MS). Stock solutions were prepared at 400x in DMSO, stored at -70 degrees C, and diluted in fresh medium prior to their use. The final concentration of DMSO in cell culture wells never exceeded 0.25% (v/v). The FDA-approved anticancer drug set is available from the Developmental Therapeutics Program at https://dtp.cancer.gov/organization/dscb/obtaining/available_plates.htm. All drugs and investigational agents were tested over a range starting from a high concentration at or near the clinical Cmax and decreasing in half-log increments. If the clinical Cmax for an agent had not been determined, the highest concentration tested was 10 microM.
Cell Lines. The patient-derived cancer cell (PDC) lines: 292921-168-R-J2-PDC, K24384-001-R-PDC, and 521955-158-R2-J5-PDC pancreatic carcinomas, 556581-035-R-J1 ovarian carcinoma, 324938-238-R-J1-PDC, 855422-203-R-J1-PDC and 883617-216-R-J1-PDC urothelial bladder carcinomas, 743489-274-T-PDC renal cell carcinoma, 138582-R-J1 Merkel cell tumor, K60290-347-R-J1 and K57222-313-R-J1-PDC glioblastomas, 653999-131-R-J2-PDC, LG0703-F948-PDC, and 349418-098-R-PDC non-small cell lung carcinomas, 885512-296-R-J2-PDC, 171881-019-R-J1-PDC breast carcinomas and 186277-243-T-J2-PDC and 233499-124-R-J2-PDC colon carcinomas were obtained from the NCI Patient-Derived Models Repository (PDMR, https://pdmr.cancer.gov). The established cell lines NCI/ADR-RES (RRID:CVCL_14520 and OVCAR-5 (RRID:CVCL_1628) ovarian carcinomas, 786-O (RRID:CVCL_1051) and A498 (RRID:CVCL_A498) renal cell carcinoma, NCI-H211 (ATCC, cat. CRL-5824; RRID:CVCL_1529), NCI-H196 (ATCC, cat. CRL-5823, RRID:CVCL_1509), SW 1271 (ATCC, cat. CRL-2177, RRID:CVCL_1716) and NCI-H1876 (ATCC, cat. CRL-5902, RRID:CVCL_1503) small cell lung carcinomas, MDA-MB-231 (RRID:CVCL_0062) and MDA-MB-468 (RRID:CVCL_0419)breast carcinomas (10-12). Pooled donor human umbilical vein endothelial cells (HUVEC, Lonza, cat. CC-2519) and human mesenchymal stem cells (hMSC, Lonza, cat. PT-2501) were purchased from Lonza (Walkersville, MD).
Cell Culture. All cells were maintained in an incubator at 37 degrees C and 5% CO2 with 95% humidity. The PDC lines were cultured according to standard operating procedures established by the NCI PDMR (https://pdmr.cancer.gov). Briefly all PDCs were thawed and cultured in Matrigel-coated flasks prepared with a working solution of 1X Ham's F-12 nutrient mix, without supplementation (Invitrogen, Waltham, MA, cat. 11765054), 100 U/mL penicillin-streptomycin (Invitrogen, cat. 15140122), and 2.5% Matrigel (Corning Inc., Corning, NY, cat. 354248) for the first three passages. […]

[1] = second compound 0.1 µM, first compound 0.000949 µM
[2] = second compound 0.1 µM, first compound 0.003 µM
[3] = second compound 0.1 µM, first compound 0.00949 µM
[4] = second compound 0.1 µM, first compound 0.03 µM
[5] = second compound 0.1 µM, first compound 0.0949 µM
[6] = second compound 0.1 µM, first compound 0.3 µM
[7] = second compound 0.316 µM, first compound 0.000949 µM
[8] = second compound 0.316 µM, first compound 0.003 µM
[9] = second compound 0.316 µM, first compound 0.00949 µM
[10] = second compound 0.316 µM, first compound 0.03 µM
[11] = second compound 0.316 µM, first compound 0.0949 µM
[12] = second compound 0.316 µM, first compound 0.3 µM
[13] = second compound 1 µM, first compound 0.000949 µM
[14] = second compound 1 µM, first compound 0.003 µM
[15] = second compound 1 µM, first compound 0.00949 µM
[16] = second compound 1 µM, first compound 0.03 µM
[17] = second compound 1 µM, first compound 0.0949 µM
[18] = second compound 1 µM, first compound 0.3 µM
[19] = second compound 3.16 µM, first compound 0.000949 µM
[20] = second compound 3.16 µM, first compound 0.003 µM
[21] = second compound 3.16 µM, first compound 0.00949 µM
[22] = second compound 3.16 µM, first compound 0.03 µM
[23] = second compound 3.16 µM, first compound 0.0949 µM
[24] = second compound 3.16 µM, first compound 0.3 µM
[25] = second compound 10 µM, first compound 0.000949 µM
[26] = second compound 10 µM, first compound 0.003 µM
[27] = second compound 10 µM, first compound 0.00949 µM
[28] = second compound 10 µM, first compound 0.03 µM
[29] = second compound 10 µM, first compound 0.0949 µM
[30] = second compound 10 µM, first compound 0.3 µM

## CCc1c2c(nc3ccc(O)cc13)-c1cc3c(c(=O)n1C2)COC(=O)[C@]3(O)CC + NC1CC1c1ccc(-c2cccc(O)c2)cc1
Second compound 0.1 µM
  IC50: 8.32 nM
Second compound 0.316 µM
  IC50: 9.63 nM
Second compound 1 µM
  IC50: 9.19 nM
Second compound 3.16 µM
  IC50: 6.69 nM
Second compound 10 µM
  IC50: 5.92 nM
[1]
  viability, T/C: 119%
[2]
  viability, T/C: 111%
[3]
  viability, T/C: 42%
[4]
  viability, T/C: 4.2%
[5]
  viability, T/C: 1.09%
[6]
  viability, T/C: 0.82%
[7]
  viability, T/C: 107%
[8]
  viability, T/C: 93.1%
[9]
  viability, T/C: 52.4%
[10]
  viability, T/C: 4.27%
[11]
  viability, T/C: 1.53%
[12]
  viability, T/C: 1.11%
[13]
  viability, T/C: 112%
[14]
  viability, T/C: 94.9%
[15]
  viability, T/C: 51.1%
[16]
  viability, T/C: 3.65%
[17]
  viability, T/C: 1.2%
[18]
  viability, T/C: 0.86%
[19]
  viability, T/C: 102%
[20]
  viability, T/C: 81.2%
[21]
  viability, T/C: 37.8%
[22]
  viability, T/C: 2.23%
[23]
  viability, T/C: 1.01%
[24]
  viability, T/C: 0.7%
[25]
  viability, T/C: 90.9%
[26]
  viability, T/C: 82.7%
[27]
  viability, T/C: 27.4%
[28]
  viability, T/C: 1.9%
[29]
  viability, T/C: 0.86%
[30]
  viability, T/C: 0.72%

## Nc1ccn(C2OC(CO)C(O)C2(F)F)c(=O)n1 (stereo not given) + NC1CC1c1ccc(-c2cccc(O)c2)cc1
Second compound 0.1 µM
  IC50: > 300 nM
Second compound 0.316 µM
  IC50: > 300 nM
Second compound 1 µM
  IC50: > 300 nM
Second compound 3.16 µM
  IC50: > 300 nM
Second compound 10 µM
  IC50: > 300 nM
[1]
  viability, T/C: 119%
[2]
  viability, T/C: 105%
[3]
  viability, T/C: 97.4%
[4]
  viability, T/C: 65.2%
[5]
  viability, T/C: 68.9%
[6]
  viability, T/C: 62.6%
[7]
  viability, T/C: 106%
[8]
  viability, T/C: 107%
[9]
  viability, T/C: 79.7%
[10]
  viability, T/C: 66.8%
[11]
  viability, T/C: 67.3%
[12]
  viability, T/C: 67.7%
[13]
  viability, T/C: 108%
[14]
  viability, T/C: 108%
[15]
  viability, T/C: 75.6%
[16]
  viability, T/C: 68.7%
[17]
  viability, T/C: 61.6%
[18]
  viability, T/C: 71.2%
[19]
  viability, T/C: 117%
[20]
  viability, T/C: 104%
[21]
  viability, T/C: 96.4%
[22]
  viability, T/C: 76.2%
[23]
  viability, T/C: 67.2%
[24]
  viability, T/C: 72%
[25]
  viability, T/C: 111%
[26]
  viability, T/C: 98.2%
[27]
  viability, T/C: 91.3%
[28]
  viability, T/C: 71.9%
[29]
  viability, T/C: 72.5%
[30]
  viability, T/C: 69.3%
